Tests used:
Type in all cases: physicochemical
[1] = Hausner ratio from tapped and aerated bulk density, Micron Powder Characteristics Tester; details: for Hausner Ratio: from tapped and aerated bulk density, flowability; for Tapped Bulk Density: tapped powder; for Aerated Bulk Density: untapped powder
Protocol: (§1) These are all standard measurements described in various text and hand books on powders and their properties. The various measurements were done using a Micron Powder Characteristics Tester™ (Model PT-N) from Hosokawa Micron International Inc.
(§2) The Hausner ratio is determined by measurement of the tapped and untapped (or aerated) bulk density. The angle of repose is determined by measurement of the angle of a cone of powder that is formed by pouring the powder through a glass funnel.

[2] = Particle size distribution, Malvern Mastersizer 2000 laser diffraction; set-up: D (0.1) / D (0.5) / D (0.9) / D [3.2] / D [4.3]: unit not given here
Description: Particle size distribution has been measured with a Malvern Mastersizer 2000® particle size analyzer Measurement. Measuring principle is based on laser diffraction.

[3] = Angle of spatula, Micron Powder Characteristics Tester
Protocol: as §1
The angle of spatula is determined by measurement the difference in the angle of powder—that stays behind on a spatula when a container with said spatula on the bottom and filled with said powder is lowered and the spatula stays on the same height—and the angle of the powder on said spatula after the spatula was tapped by a weight.

[4] = Angle of repose, Micron Powder Characteristics Tester
Protocol: as §1, §2

[5] = Average moisture content of resulting powder; details: resulting powder after drying

Compound | Carr class ([1]; Carr flowability scale based on compaction) | Hausner Ratio [1] | Tapped Bulk Density [1] | Aerated Bulk Density [1] | D (0.1) [2] | D (0.5) [2] | D (0.9) [2] | D [3.2] [2] | D [4.3] [2] | Span (—) [2] | Angle of spatula [index] ([3]; flowability index word) | Angle of spatula ([3]; powder on spatula before and after tapping) | Angle of repose ([4]; cone of powder poured through glass funnel) | Angle of repose [index] ([4]; flowability index word) | average moisture content [5] | Hausner Ratio ([1]; listed as Commercially available potassium cinnamate)
O=C([O-])C=Cc1ccccc1.[K+] [Potassium cinnamate of the present disclosure] | Good | 1.15 | 945 kg m^−3 | 823 kg m^−3 | 114 | 192 | 320 | 178 | 206 | 1.07 | normal | 48 | 35.6 | good | – | –
O=C([O-])C=Cc1ccccc1.[K+] [Experiment 1, potassium cinnamate] | – | – | – | – | – | – | – | – | – | – | – | – | – | – | less than 2 wt % | –
O=C([O-])C=Cc1ccccc1.[K+] [Experiment 2, potassium cinnamate] | – | – | – | – | – | – | – | – | – | – | – | – | – | – | about 0.5 wt % | –
O=C([O-])C=Cc1ccccc1.[K+] [Potassium cinnamate commercially available] | – | 1.66 | 527 kg m^−3 | 318 kg m^−3 | 44 | 240 | 601 | 89 | 286 | 2.32 | – | – | – | – | – | about 1.66
